# Experimental data taken from patent US20130288982A1, “THERAPEUTIC AGENT FOR PULMONARY SMALL CELL CARCINOMA” (TOKYO WOMEN'S MEDICAL UNIVERSITY, priority 2009, published 2013).
# No end group written: not given here.
# Columns and labels:
# [1] = test system: human breast cancer cell line MCF-7; experiment: Inhibition of proliferation of cancer cells (XTT based Cell Proliferation Kit), MCF-7; conditions: peptide added, incubation at 37° C. for three days; data not shown
# Protocol: (§1) The human pulmonary small cell carcinoma cell line RERF-LC-MA, the human prostate cancer cell line PC-3, and the human breast cancer cell line MCF-7 were used as the cancer cells.
# (§2) A 96-well plate was inoculated with the above-mentioned cells at a density of 0.6×10^3 to 1.0×10^3 cells per well, and then cultured at 37° C. for three days. Then, cell proliferation was quantified using the Cell Proliferation Kit (XTT based).
# (§3) Next, the above-mentioned peptides were separately added to the culture system at concentrations of 0 μg/mL, 1 μg/mL, 5 μg/mL and 10 μg/m, followed by incubation at 37° C. for three days. After completion of the incubation, the number of cancer cells was counted.
# [2] = test system: mRNA of the VEGFR1, RECK, MMP9 and MMP14 in the osteoclasts; experiment: mRNA expression of molecule groups in osteoclasts by qPCR; type: cell-based; conditions: peptide A vs scrambled peptide, 24 hours after addition
# Protocol: (§4) The peptides were added to the cancer cells and osteoclasts to determine a change in the expression of each molecular group resulting from the interaction between the peptide and the cancer cells or between the peptide and osteoclasts by confirming the expression of mRNA using quantitative polymerase chain reaction (qPCR).
# The following molecule groups were used which are expressed in the cancer cells and/or osteoclasts as reported in Yoko Morioka et al.: “The roles of MMPs and RECK in cancer progression”, Cell Technology. Vol. 28, No. 7, 659-679 (2009).
# (§5) The cancer cells and the osteoclasts were separately inoculated into a 6-well plate at a density of 1×10^5 to 2×10^5 cells per well. Twenty-four hours later, the medium was changed to D-MEM (1% FCS, 2 mM L-glu). Another 24 hours later, the medium was changed, and at the same time the peptide A or the control was added. After 24 hours, the cells were collected and extraction of the RNA was conducted.
# [3] = test system: human pulmonary small cell carcinoma cell line RERF-LC-MA; experiment: Inhibition of proliferation of cancer cells (XTT based Cell Proliferation Kit), RERF-LC-MA; conditions: peptide added at 5 μg/mL or 10 μg/m, incubation at 37° C. for three days; p=0.031 vs scrambled peptide control
# Protocol: as §1, §2, §3
# [4] = test system: GAPDH mRNA in RERF-LC-MA cell; experiment: GAPDH mRNA expression in cancer cells by qPCR; type: cell-based, human; conditions: RERF-LC-MA cell (only in this cancer cell line), 24 hours after addition
# Protocol: as §4
# As the cancer cells, those as shown in Example 1 were used.
# as §5
# [5] = test system: human prostate cancer cell line PC-3; experiment: Inhibition of proliferation of cancer cells (XTT based Cell Proliferation Kit), PC-3; conditions: peptide added, incubation at 37° C. for three days; data not shown
# Protocol: as §1, §2, §3
sequence,measurement,setting,value
"GQNGSTPDGSTHFPSWEMAANEPLKTHRE [peptide A, 29-mer peptide derived from the TCTA protein, containing extracellular domain GQN]",inhibitory effect on proliferation of the MCF-7 cells,[1],almost no inhibitory effect
same,expression of mRNA of MMP9 in the osteoclasts,[2],no significant difference
same,expression of mRNA of MMP14 in the osteoclasts,[2],no significant difference
same,expression of mRNA of RECK in the osteoclasts,[2],no significant difference
same,expression of mRNA of VEGFR1 in the osteoclasts,[2],no significant difference
same,proliferation of the RERF-LC-MA cells (reduced to),[3],about 85%
same,GAPDH mRNA expression,[4],reduced
same,inhibitory effect on proliferation of the PC-3 cells,[5],almost no inhibitory effect
